Converted amounts (≈) assume the structure as drawn. The source made the active and inactive calls. The rule behind the calls is not given here.
Legend:
NCI-H460 = assay: Cytotoxicity against human H460 cells after 24 hrs; format: functional, cell-based; settings: NCI-H460, 24 h
[1] = Cytotoxicity against cisplatin-resistant human M51 cells after 24 hrs; format: functional, cell-based; settings: M51, 24 h
HT-29 [2] = assay: Cytotoxicity against human HT-29 cells after 24 hrs; format: functional, cell-based; settings: HT-29, 24 h
[3] = Cytotoxicity against etoposide-resistant human LAN1 cells after 24 hrs; format: functional, cell-based; settings: LAN1, 24 h
HT-29 [4] = assay: Cytotoxicity against 5-FU-resistant human HT-29 cells after 24 hrs; format: functional, cell-based; settings: HT-29, 24 h
[5] = Cytotoxicity against 5-FU-resistant human LAN1 cells after 24 hrs; format: functional, cell-based; settings: LAN1, 24 h
HEK293 = assay: Cytotoxicity against HEK293 cells after 24 hrs; format: cell-based; settings: Homo sapiens, HEK293, 24 h
MCF7 [6] = assay: Cytotoxicity against 5-FU-resistant human MCF7 cells after 24 hrs; format: functional, cell-based; settings: MCF7, 24 h
A2780 [7] = assay: Cytotoxicity against doxorubicin-resistant human A2780 cells after 24 hrs; format: functional, cell-based; settings: A2780, 24 h
A2780 [8] = assay: Cytotoxicity against human A2780 cells after 24 hrs; format: functional, cell-based; settings: A2780, 24 h
[9] = Cytotoxicity against human LAN1 cells after 24 hrs; format: functional, cell-based; settings: LAN1, 24 h
HT-29 [10] = assay: Cytotoxicity against SN38-resistant human HT-29 cells after 24 hrs; format: functional, cell-based; settings: HT-29, 24 h
LNCaP [11] = assay: Cytotoxicity against etoposide-resistant human LNCAP cells after 24 hrs; format: functional, cell-based
K562 = assay: Cytotoxicity against human K562 cells after 24 hrs; format: functional, cell-based; settings: K562, 24 h
PC-3 = assay: Cytotoxicity against human PC3 cells after 24 hrs; format: functional, cell-based; settings: PC-3, 24 h
MCF7 [12] = assay: Cytotoxicity against doxorubicin-resistant human MCF7 cells after 24 hrs; format: functional, cell-based; settings: MCF7, 24 h
A2780 [13] = assay: Cytotoxicity against cisplatin-resistant human A2780 cells after 24 hrs; format: functional, cell-based; settings: A2780, 24 h
HCT-8 [14] = assay: Cytotoxicity against human HCT8 cells after 24 hrs; format: functional, cell-based; settings: HCT-8, 24 h
[15] = Cytotoxicity against human M51 cells after 24 hrs; format: functional, cell-based; settings: M51, 24 h
LNCaP [16] = assay: Cytotoxicity against human LNCAP cells after 24 hrs; format: functional, cell-based
HCT-8 [17] = assay: Cytotoxicity against raltitrexed-resistant human HCT8 cells after 24 hrs; format: functional, cell-based; settings: HCT-8, 24 h
[18] = Cytotoxicity against cisplatin-resistant human LAN1 cells after 24 hrs; format: functional, cell-based; settings: LAN1, 24 h
MCF7 [19] = assay: Cytotoxicity against human MCF7 cells after 24 hrs; format: functional, cell-based; settings: MCF7, 24 h
[20] = Cytotoxicity against human […] cells after 24 hrs; format: cell-based
HCT-8 [21] = assay: Cytotoxicity against SN38-resistant human HCT8 cells after 24 hrs; format: functional, cell-based; settings: HCT-8, 24 h
Jurkat = assay: Cytotoxicity against human Jurkat cells after 24 hrs; format: functional, cell-based
[22] = Antimetastatic activity in mouse EAC cells xenografted in NMRI mouse assessed as metastatic colony formation in lungs at 20 mg/kg, ip daily for 9 days relative to control; format: functional, Ehrlich; settings: route intraperitoneal
[23] = molecular target: DNA polymerase I, thermostable (Thermus aquaticus, UniProt P19821); assay: Inhibition of Taq DNA polymerase
HCT-8 [24] = assay: Cell cycle arrest in human HCT8 cells assessed as accumulation at S phase at IC50 after 24 hrs by FACS analysis relative to control; format: functional
[25] = molecular target: T1, DNA topoisomerase 1 (Homo sapiens) (UniProt P11387); assay: Inhibition of human topoisomerase 1-mediated relaxation of supercoiled pBR322 DNA up to 6.25 ug/mL after 30 mins by agarose gel electrophoresis
T1 sequence (whole entry): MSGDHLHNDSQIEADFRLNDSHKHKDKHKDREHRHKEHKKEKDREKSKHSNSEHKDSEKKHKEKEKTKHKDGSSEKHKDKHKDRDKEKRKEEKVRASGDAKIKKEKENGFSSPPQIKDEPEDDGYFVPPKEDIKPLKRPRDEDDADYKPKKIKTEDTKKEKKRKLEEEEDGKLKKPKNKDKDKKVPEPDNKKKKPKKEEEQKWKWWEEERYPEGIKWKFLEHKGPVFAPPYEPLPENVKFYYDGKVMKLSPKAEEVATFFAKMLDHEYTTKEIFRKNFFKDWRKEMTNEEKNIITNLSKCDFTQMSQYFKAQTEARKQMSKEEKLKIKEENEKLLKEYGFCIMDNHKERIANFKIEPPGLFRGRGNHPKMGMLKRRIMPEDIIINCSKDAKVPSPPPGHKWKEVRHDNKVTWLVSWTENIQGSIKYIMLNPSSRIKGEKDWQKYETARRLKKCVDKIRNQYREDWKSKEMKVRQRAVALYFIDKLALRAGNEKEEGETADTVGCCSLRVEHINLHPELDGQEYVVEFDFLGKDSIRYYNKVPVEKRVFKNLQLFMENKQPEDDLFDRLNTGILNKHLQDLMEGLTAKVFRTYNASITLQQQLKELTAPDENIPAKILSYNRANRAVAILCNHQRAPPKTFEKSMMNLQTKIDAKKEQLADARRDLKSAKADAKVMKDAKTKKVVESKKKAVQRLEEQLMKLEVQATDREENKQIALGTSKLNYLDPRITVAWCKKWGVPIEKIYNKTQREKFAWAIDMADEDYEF

[26] = Inhibition of Moloney murine leukemia virus reverse transcriptase
HCT-8 [27] = assay: Induction of late apoptosis in [14C]D-thymidine labeled human HCT8 cells assessed DNA fragmentation treated at 10 times IC50 for 8 hrs measured after 24 hrs by liquid scintillation counter; format: functional, cell-based
HCT-8 [28] = assay: Decrease in topoisomerase 2 beta gene expression in human HCT8 cells at 2.5 times IC50 after 24 hrs by RT-PCR; format: functional, cell-based
HCT-8 [29] = assay: Decrease in multidrug-resistant related protein gene expression in human HCT8 cells at 2.5 times IC50 after 24 hrs by RT-PCR; format: functional, cell-based
HCT-8 [30] = assay: Cell cycle arrest in human HCT8 cells assessed as accumulation at G2/M phase at IC50 after 24 hrs by FACS analysis relative to control; format: functional
[31] = Inhibition of HIV reverse transcriptase; parameters: species or system Human immunodeficiency virus
HCT-8 [32] = assay: Cell cycle arrest in human HCT8 cells assessed as accumulation at G0/G1 phase at IC50 after 24 hrs by FACS analysis relative to control; format: functional
HCT-8 [33] = assay: Induction of late apoptosis in [14C]D-thymidine labeled human HCT8 cells assessed DNA fragmentation treated at 2.5 times IC50 for 8 hrs measured after 24 hrs by liquid scintillation counter; format: functional, cell-based
HCT-8 [34] = assay: Decrease in EGF receptor gene expression in human HCT8 cells at 2.5 times IC50 after 24 hrs by RT-PCR; format: functional, cell-based
[35] = molecular target: T1, DNA topoisomerase 1 (Homo sapiens); assay: Inhibition of human topoisomerase 1-mediated relaxation of supercoiled pBR322 DNA up to 12.5 ug/mL after 30 mins by agarose gel electrophoresis

DNA polymerase I, thermostable, sequence (P19821 whole entry): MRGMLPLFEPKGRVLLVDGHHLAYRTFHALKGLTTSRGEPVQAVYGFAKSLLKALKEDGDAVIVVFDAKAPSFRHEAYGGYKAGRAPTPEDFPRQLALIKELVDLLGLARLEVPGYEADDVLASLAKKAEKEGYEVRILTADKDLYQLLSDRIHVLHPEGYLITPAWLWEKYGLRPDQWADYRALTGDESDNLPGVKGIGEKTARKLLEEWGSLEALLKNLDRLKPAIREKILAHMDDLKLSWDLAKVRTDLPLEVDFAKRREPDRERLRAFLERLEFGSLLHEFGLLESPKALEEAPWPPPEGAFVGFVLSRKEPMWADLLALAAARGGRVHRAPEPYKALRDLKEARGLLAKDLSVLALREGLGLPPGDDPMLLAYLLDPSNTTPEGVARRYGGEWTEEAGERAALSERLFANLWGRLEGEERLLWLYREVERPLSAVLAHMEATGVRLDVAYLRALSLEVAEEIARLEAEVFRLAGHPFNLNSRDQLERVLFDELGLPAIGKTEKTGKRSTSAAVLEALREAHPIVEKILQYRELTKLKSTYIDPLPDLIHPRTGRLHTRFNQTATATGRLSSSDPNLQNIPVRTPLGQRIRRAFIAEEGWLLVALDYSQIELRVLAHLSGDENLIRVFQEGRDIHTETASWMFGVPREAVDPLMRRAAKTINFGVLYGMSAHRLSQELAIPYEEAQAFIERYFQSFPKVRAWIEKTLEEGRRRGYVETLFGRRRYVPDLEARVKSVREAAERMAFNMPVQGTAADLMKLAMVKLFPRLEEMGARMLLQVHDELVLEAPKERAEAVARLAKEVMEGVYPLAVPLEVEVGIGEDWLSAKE

SMILES | IC50 (NCI-H460) [µg/mL] | IC50 [1] [µg/mL] | IC50 (HT-29 [2]) [µg/mL] | IC50 [3] [µg/mL] | IC50 (HT-29 [4]) [µg/mL] | IC50 [5] [µg/mL] | IC50 (HEK293) [µg/mL] | IC50 (MCF7 [6]) [µg/mL] | IC50 (A2780 [7]) [µg/mL] | IC50 (A2780 [8]) [µg/mL] | IC50 [9] [µg/mL] | IC50 (HT-29 [10]) [µg/mL] | IC50 (LNCaP [11]) [µg/mL] | IC50 (MCF7 [12]) [µg/mL] | IC50 (A2780 [13]) [µg/mL] | IC50 (HCT-8 [14]) [µg/mL] | IC50 [15] [µg/mL] | IC50 (LNCaP [16]) [µg/mL] | IC50 (HCT-8 [17]) [µg/mL] | IC50 (MCF7 [19]) [µg/mL] | further results
CC(C)=CCC1=C(O)[C@@]2(C(=O)c3ccccc3)C(=O)[C@](CC=C(C)C)(C[C@H](CC=C(C)C)C2(C)C)C1=O | 4.21 (≈ 8.37 µM) | 4.77 (≈ 9.49 µM) | 5.25 (≈ 10.4 µM) | 9.18 (≈ 18.3 µM) | 5.18 (≈ 10.3 µM) | 8.24 (≈ 16.4 µM) | 4.2 (≈ 8.35 µM) | 3.3 (≈ 6.56 µM) | 6.75 (≈ 13.4 µM) | 9.2 (≈ 18.3 µM) | 8.2 (≈ 16.3 µM) | 3.5 (≈ 6.96 µM) | 1.81 (≈ 3.6 µM) | 4.28 (≈ 8.51 µM) | 6.23 (≈ 12.4 µM) | 4.23 (≈ 8.41 µM) | 5.7 (≈ 11.3 µM) | 2.12 (≈ 4.22 µM) | 4.44 (≈ 8.83 µM) | 4.37 (≈ 8.69 µM) | IC50 (K562): 4.2 µg/mL (≈ 8.35 µM); IC50 (PC-3): 2.01 µg/mL (≈ 4 µM); IC50 [18]: 8.44 µg/mL (≈ 16.8 µM); IC50 [20]: 21.7 µg/mL (≈ 43.2 µM); IC50 (HCT-8 [21]): 4.07 µg/mL (≈ 8.1 µM); IC50 (Jurkat): 4.6 µg/mL (≈ 9.15 µM)
O=c1[nH]cc(F)c(=O)[nH]1 [FLUOROURACIL] | – | – | – | – | – | – | – | – | – | – | – | – | – | – | – | – | – | – | – | – | Activity [22]: 23.8%
COc1ccc([C@H]2COc3cc(O)ccc3C2)c(OC)c1O [MUCRONULATOL] | – | – | – | > 50 | – | 8.22 (≈ 27.2 µM) | 2.5 (≈ 8.27 µM) | – | – | – | 10.1 (≈ 33.4 µM) | – | – | > 50 | – | 2.6 (≈ 8.6 µM) | – | – | – | 2.52 (≈ 8.34 µM) | IC50 [18]: 10.2 µg/mL (≈ 33.8 µM)
CC(C)=CC[C@]12C[C@@H]3[C@H](C=C(C)C)[C@](CC=C(C)C)(C1=O)C(=O)[C@](C(=O)c1ccccc1)(C2=O)C3(C)C [PLUKENETIONE A] | 13.4 (≈ 26.8 µM) | 7.6 (≈ 15.2 µM) | 12 (≈ 24 µM) | – | 14.2 (≈ 28.4 µM) | – | 32.1 (≈ 64.1 µM) | 10 (≈ 20 µM) | 14.5 (≈ 28.9 µM) | 13.3 (≈ 26.6 µM) | – | 13.3 (≈ 26.6 µM) | 1.72 (≈ 3.44 µM) | 15 (≈ 29.9 µM) | 15.9 (≈ 31.8 µM) | 12.9 (≈ 25.8 µM) | 6.53 (≈ 13 µM) | 1.98 (≈ 3.95 µM) | 12.1 (≈ 24.2 µM) | 16.3 (≈ 32.5 µM) | IC50 [23]: 12.5 µM; Activity (HCT-8 [24]): 4.3%; Activity [25]: Active; IC50 [26]: 1.5 µg/mL (≈ 3 µM); Activity (HCT-8 [27]): Active; Activity (HCT-8 [28]): Active; Activity (HCT-8 [29]): Active; Activity (HCT-8 [30]): 20.6%; IC50 [31]: 1.5 µg/mL (≈ 3 µM); Activity (HCT-8 [32]): 52.1%; Activity (HCT-8 [33]): Active; Activity (HCT-8 [34]): Active; Activity [35]: Active; IC50 [20]: 15.7 µg/mL (≈ 31.4 µM); IC50 (HCT-8 [21]): 11.7 µg/mL (≈ 23.3 µM); IC50 (Jurkat): 5.28 µg/mL (≈ 10.5 µM)
